Measurements: patent publication US10787452B2 (Vertex Pharmaceuticals Incorporated, priority 2012, dated 2020)

System: HCT116 colorectal cancer cells
Assay: Cisplatin sensitization assay (96 h cell viability MTS);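 note: compound concentration needed to lower the Cisplatin-alone IC50 by a set fold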
Type: cell-based
Conditions: 96 h MTS, compound plus Cisplatin
Procedure, shortened: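 Test compound and cisplatin were added together as a full matrix of 2-fold serial dilutions, each from a top final concentration of 10 μM. Cells were incubated 96 h at 37° C in 5% CO2, then viability was read by MTS after a further 1 h incubation.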

Compound | Cisplatin Sensitization Assay
Nc1nn2cc(F)cnc2c1C(=O)Nc1cnccc1N1CCN2CCC[C@H]2C1 [I-N-21, (S)-2-amino-6-fluoro-N-(4-(hexahydropyrrolo[1,2-a]pyrazin-2(1H)-yl)pyridin-3-yl)pyrazolo[1,5-a]pyrimidine-3-carboxamide] | +++ (Compounds with a Cisplatin sensitization value of <0.02 μM are marked with “+++.”)
Nc1nn2cc(F)cnc2c1C(=O)Nc1cncc(F)c1N1CCNCC1 [I-N-118, 2-amino-6-fluoro-N-(5-fluoro-4-(piperazin-1-yl)pyridin-3-yl)pyrazolo[1,5-a]pyrimidine-3-carboxamide] | +++ (Compounds with a Cisplatin sensitization value of <0.02 μM are marked with “+++.”)
Nc1nn2cc(Cl)cnc2c1C(=O)Nc1cnccc1C1CCN(C2COC2)CC1 [I-C-11, 2-amino-6-chloro-N-(4-(1-(oxetan-3-yl)piperidin-4-yl)pyridin-3-yl)pyrazolo[1,5-a]pyrimidine-3-carboxamide] | +++ (Compounds with a Cisplatin sensitization value of <0.02 μM are marked with “+++.”)
CN1CCC(NC(=O)C2CCN(c3c(F)cncc3NC(=O)c3c(N)nn4cc(F)cnc34)CC2)C1 (stereo not shown) [I-G-24, 2-amino-6-fluoro-N-(5-fluoro-4-(4-((1-methylpyrrolidin-3-yl)carbamoyl)piperidin-1-yl)pyridin-3-yl)pyrazolo[1,5-a]pyrimidine-3-carboxamide] | +++ (Compounds with a Cisplatin sensitization value of <0.02 μM are marked with “+++.”)
COc1cc(Cl)ncc1NC(=O)c1c(N)nn2cc(CC#N)cnc12 [I-O-27, 2-amino-N-(6-chloro-4-methoxypyridin-3-yl)-6-(cyanomethyl)pyrazolo[1,5-a]pyrimidine-3-carboxamide] | ++ (Compounds with a Cisplatin sensitization value >0.02 μM but <0.2 μM are marked with “++.”)
CC(C)N1CCN2CCN(c3ccncc3NC(=O)c3c(N)nn4cc(F)cnc34)CC2C1=O (stereo not shown) [I-N-245, 2-amino-6-fluoro-N-(4-(8-isopropyl-9-oxohexahydro-1H-pyrazino[1,2-a]pyrazin-2(6H)-yl)pyridin-3-yl)pyrazolo[1,5-a]pyrimidine-3-carboxamide] | ++ (Compounds with a Cisplatin sensitization value >0.02 μM but <0.2 μM are marked with “++.”)
Nc1nn2cc(F)cnc2c1C(=O)Nc1cncc(F)c1N1CCC(C(=O)N2CCNC3(CC3)C2)CC1 [I-G-28, N-(4-(4-(4,7-diazaspiro[2.5]octane-7-carbonyl)piperidin-1-yl)-5-fluoropyridin-3-yl)-2-amino-6-fluoropyrazolo[1,5-a]pyrimidine-3-carboxamide] | +++ (Compounds with a Cisplatin sensitization value of <0.02 μM are marked with “+++.”)
Nc1nn2cc(F)cnc2c1C(=O)Nc1cncc(Cl)c1N1CCNCC1 [I-N-126, 2-amino-N-(5-chloro-4-(piperazin-1-yl)pyridin-3-yl)-6-fluoropyrazolo[1,5-a]pyrimidine-3-carboxamide] | +++ (Compounds with a Cisplatin sensitization value of <0.02 μM are marked with “+++.”)
Nc1nn2cc(F)cnc2c1C(=O)Nc1cncc(F)c1N1CCC(C(=O)N2CC(N3CCCCC3)C2)CC1 [I-G-57, 2-amino-6-fluoro-N-(5-fluoro-4-(4-(3-(piperidin-1-yl)azetidine-1-carbonyl)piperidin-1-yl)pyridin-3-yl)pyrazolo[1,5-a]pyrimidine-3-carboxamide] | +++ (Compounds with a Cisplatin sensitization value of <0.02 μM are marked with “+++.”)
Cc1nccn1-c1ccncc1NC(=O)c1c(N)nn2cc(F)cnc12 [I-N-28, 2-amino-6-fluoro-N-(4-(2-methyl-1H-imidazol-1-yl)pyridin-3-yl)pyrazolo[1,5-a]pyrimidine-3-carboxamide] | +++ (Compounds with a Cisplatin sensitization value of <0.02 μM are marked with “+++.”)
CN1CCN(c2ccc(-c3ccncc3NC(=O)c3c(N)nn4cc(F)cnc34)cn2)CC1 [I-C-21, 2-amino-6-fluoro-N-(6-(4-methylpiperazin-1-yl)-[3,4′-bipyridin]-3′-yl)pyrazolo[1,5-a]pyrimidine-3-carboxamide] | +++ (Compounds with a Cisplatin sensitization value of <0.02 μM are marked with “+++.”)
CN(C)CCOc1ccncc1NC(=O)c1c(N)nn2cc(Cl)cnc12 [I-O-48, 2-amino-6-chloro-N-(4-(2-(dimethylamino)ethoxy)pyridin-3-yl)pyrazolo[1,5-a]pyrimidine-3-carboxamide] | ++ (Compounds with a Cisplatin sensitization value >0.02 μM but <0.2 μM are marked with “++.”)
COCCS(=O)(=O)C1CCN(c2ccncc2NC(=O)c2c(N)nn3cc(F)cnc23)CC1 [I-N-208, 2-amino-6-fluoro-N-(4-(4-((2-methoxyethyl)sulfonyl)piperidin-1-yl)pyridin-3-yl)pyrazolo[1,5-a]pyrimidine-3-carboxamide] | +++ (Compounds with a Cisplatin sensitization value of <0.02 μM are marked with “+++.”)
CC(C)(C)N1CCN(c2ccncc2NC(=O)c2c(N)nn3cc(Cl)cnc23)CC1 [I-N-34, 2-amino-N-(4-(4-(tert-butyl)piperazin-1-yl)pyridin-3-yl)-6-chloropyrazolo[1,5-a]pyrimidine-3-carboxamide] | ++ (Compounds with a Cisplatin sensitization value >0.02 μM but <0.2 μM are marked with “++.”)
CN1CCN(C(=O)N2CCC(c3ccncc3NC(=O)c3c(N)nn4cc(F)cnc34)CC2)CC1 [I-C-17, 2-amino-6-fluoro-N-(4-(1-(4-methylpiperazine-1-carbonyl)piperidin-4-yl)pyridin-3-yl)pyrazolo[1,5-a]pyrimidine-3-carboxamide] | ++ (Compounds with a Cisplatin sensitization value >0.02 μM but <0.2 μM are marked with “++.”)
Cc1ccncc1NC(=O)c1c(N)nn2cc(Cl)cnc12 [I-C-2, 2-amino-6-chloro-N-(4-methylpyridin-3-yl)pyrazolo[1,5-a]pyrimidine-3-carboxamide] | ++ (Compounds with a Cisplatin sensitization value >0.02 μM but <0.2 μM are marked with “++.”)
CN1CCCN(C(=O)C2CCN(c3c(F)cncc3NC(=O)c3c(N)nn4cc(F)cnc34)CC2)CC1 [I-G-6, 2-amino-6-fluoro-N-(5-fluoro-4-(4-(4-methyl-1,4-diazepane-1-carbonyl)piperidin-1-yl)pyridin-3-yl)pyrazolo[1,5-a]pyrimidine-3-carboxamide] | +++ (Compounds with a Cisplatin sensitization value of <0.02 μM are marked with “+++.”)
CCOc1ccncc1NC(=O)c1c(N)nn2cc(Cl)cnc12 [I-O-56, 2-amino-6-chloro-N-(4-ethoxypyridin-3-yl)pyrazolo[1,5-a]pyrimidine-3-carboxamide] | +++ (Compounds with a Cisplatin sensitization value of <0.02 μM are marked with “+++.”)
CN1CCN(C(=O)C2CCN(c3ccncc3NC(=O)c3c(N)nn4cc(F)cnc34)CC2)CC1 [I-G-1, 2-amino-6-fluoro-N-(4-(4-(4-methylpiperazine-1-carbonyl)piperidin-1-yl)pyridin-3-yl)pyrazolo[1,5-a]pyrimidine-3-carboxamide] | +++ (Compounds with a Cisplatin sensitization value of <0.02 μM are marked with “+++.”)
